Reference: patent publication US20250032465A1, “METHODS OF TREATING CNS DISORDERS” (HANGZHOU HIGHLIGHTLL PHARMACEUTICAL CO., LTD, priority 2021, published 2025)
“Also recorded” adds a separate entry of the source. Where two headings read alike, the source gives them in different places.

Tests used:
HT22 cells = assay: HT22 neuronal cell death induced by LPS activated BV2 microglia (transwell co-culture); format: cell-based; details: 1.7 μM pre-treatment of BV2, LPS 200 ng/ml, 96 h
Experimental: (§1) This testing was performed to test the ability of compounds to alleviate the injury of HT22 cells induced by LPS activated BV2 cells. The testing was performed according to the following procedure: 1) Microglia BV2 cells were co-cultured on transwell inserts with HT22hippocampal neurons. BV2 cells were stimulated with LPS (200 ng/ml) for 96 h after treatment with a compound of Formula (II) at 1.7 μM. 2) HT22 cells were pre-treated with a compound of Formula (II) at 1.7 μM for 30 min and subsequently stimulated with LPS (200 ng/ml) for 96 h. 3) BV2 cells were treated using LPS. IL-6, TNF and MCP-1 productions were measured in cell supernatants using CBA assay.
The protective effects of a compound of Formula (II) on microglial activation-induced neuronal death were evaluated in a BV2 microglia/HT22 neuron co-culture. Following stimulation of BV2 microglia with LPS (200 ng/mL), there was a marked reduction in the viability of co-cultured HT22 cells.

MOG35-55-EAE model = assay: MOG35-55 induced experimental autoimmune encephalomyelitis (MOG35-55-EAE) model; format: in vivo, female C57BL/6 mice
Description: MOG-EAE is one of the most common and widely used animal models for multiple sclerosis, which is a chronic inflammatory disease in the central nervous system that is characterized by axon demyelination and degeneration. In this mouse model, animals were immunized with myelin oligodendrocyte glycoprotein (MOG) peptide in Complete Freund's Adjuvant (CFA) firstly and then boosted with Pertussis Toxin. Upon immunization, mice developed chronic inflammation in the central nervous system, which led to axon dysfunction, and associated movement disabilities and paralysis. The disease onset usually starts from Day 10 and lasts for 20-30 days. This model allows specific investigation of the neuroinflammatory signaling pathways and evaluation of the efficacy of novel anti-inflammatory therapies. […] Mortality and observed clinical signs were recorded for individual animals in detail. Body weight and disease activity index (DAI) were measured twice per week after disease induction and then every other day starting from Day 10 to the study end. The DAI was scored according to the scoring criteria: 0=normal; 1=loss of tail tone; 2=loss of tail tone and hind limb weakness; 3=severe weakness in both limbs/single limb paralysis; 4=paralysis of two or more limbs; 5=death. […] The body weights and disease score were measured by using StudyDirector™ software (version 3.1.399.19). […]

BV2 cells = assay: IL-6, TNF and MCP-1 production in LPS-stimulated BV2 cells (CBA assay); format: cell-based; details: for inhibition at 1.7 µM: Mus musculus, BV-2, LPS-treated BV2 cells
Experimental: as §1
In LPS-treated BV2 cells, there was a marked increase in IL-6, TNF and MCP-1 production, when compared to unstimulated cells.

For `Cc1nc2cnc3ccoc3c2n1[C@H]1CC[C@H](CC#N)OC1` [Formula (II)], the “Toxicity to HT22 cells (neuronal cell death) from LPS stimulation of BV2 microglia” value (HT22 cells) was “significantly reduced toxicity to HT22 cells; also recorded: reduced HT22 neuronal cell death”, the “Disease Activity Index (DAI)” value (MOG35-55-EAE model; 30 mg/kg BID oral gavage from Day 10, vs vehicle, Days 10-26) was “reduced disease activity; also recorded: lower DAI” and the Body weight loss (MOG35-55-EAE model; 30 mg/kg BID oral gavage, mice with EAE) was “significantly reduced body weight loss”. For the same compound, the “IL-6, TNF and MCP-1 production (in words)” value (BV2 cells; LPS-stimulated BV2 cells, pre-treatment) was “dose-dependently reduced; also recorded: inhibited”, the inhibition at 1.7 µM (BV2 cells; read-out: Inhibition of IL-6 production) was 49.1% and the inhibition at 1.7 µM (BV2 cells; read-out: Inhibition of MCP-1 production) was 56.9%. It also gave an inhibition at 1.7 µM (BV2 cells; read-out: Inhibition of TNF production) of 39.9%.
